For one test, the target named is dopamine transporter (Homo sapiens, UniProt Q01959). The experiment in a line: DA uptake: displacement of dopamine ligands in vitro (methods of Gu et al.).
The next test addresses serotonin transporter (Homo sapiens, UniProt P31645). Briefly: 5-HT uptake: displacement of serotonin ligands in vitro (methods of Gu et al.). In kind it is binding.
The target in test [1] is norepinephrine transporter (Homo sapiens, UniProt P23975). The experiment in a line: NE uptake: displacement of norephinephrine ligands in vitro (methods of Galli et al.). In kind it is binding.
Where [2] appears, read: DA Uptake, Uptake Profile (IC50, nM), displacement of dopamine ligands in vitro.
Setting [3] is: displacement of serotonin ligands in vitro, read-out: 5-HT Uptake, Uptake Profile (IC50).
Where [4] appears, read: NE Uptake, Uptake Profile (IC50, nM).
Setting [5] is: read-out: NE Uptake, Uptake Profile (IC50).
[6] abbreviates: 5-HT Uptake, Uptake Profile (IC50, nM).
Where [7] appears, read: read-out: DA Uptake, Uptake Profile (IC50), displacement of dopamine ligands in vitro.

Molecules are shown by their SMILES. Read-outs that look alike come from different tables or passages of the source.

Consider 32 compounds from patent publication US7294637B2 (Sepracor, Inc., priority 2000, dated 2007).

As usually defined, the IC50 is the concentration that gives 50% inhibition.

Sequence of serotonin transporter (P31645 whole entry): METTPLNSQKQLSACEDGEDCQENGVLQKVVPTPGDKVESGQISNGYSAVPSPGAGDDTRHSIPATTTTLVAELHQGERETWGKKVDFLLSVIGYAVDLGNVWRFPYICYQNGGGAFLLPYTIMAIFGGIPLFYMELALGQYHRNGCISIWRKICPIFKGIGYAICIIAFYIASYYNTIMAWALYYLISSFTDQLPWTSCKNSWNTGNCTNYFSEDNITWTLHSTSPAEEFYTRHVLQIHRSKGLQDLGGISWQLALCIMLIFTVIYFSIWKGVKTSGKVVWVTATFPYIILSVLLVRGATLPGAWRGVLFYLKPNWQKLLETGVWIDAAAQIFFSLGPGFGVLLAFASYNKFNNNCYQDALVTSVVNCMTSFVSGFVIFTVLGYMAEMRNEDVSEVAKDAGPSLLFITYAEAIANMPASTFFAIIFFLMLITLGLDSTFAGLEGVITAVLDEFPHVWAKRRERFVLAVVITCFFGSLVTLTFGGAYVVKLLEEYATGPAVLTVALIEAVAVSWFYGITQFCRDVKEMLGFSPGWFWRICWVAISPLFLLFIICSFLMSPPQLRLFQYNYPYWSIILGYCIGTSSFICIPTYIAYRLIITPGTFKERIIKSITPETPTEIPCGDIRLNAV
Sequence of dopamine transporter (Q01959 whole entry): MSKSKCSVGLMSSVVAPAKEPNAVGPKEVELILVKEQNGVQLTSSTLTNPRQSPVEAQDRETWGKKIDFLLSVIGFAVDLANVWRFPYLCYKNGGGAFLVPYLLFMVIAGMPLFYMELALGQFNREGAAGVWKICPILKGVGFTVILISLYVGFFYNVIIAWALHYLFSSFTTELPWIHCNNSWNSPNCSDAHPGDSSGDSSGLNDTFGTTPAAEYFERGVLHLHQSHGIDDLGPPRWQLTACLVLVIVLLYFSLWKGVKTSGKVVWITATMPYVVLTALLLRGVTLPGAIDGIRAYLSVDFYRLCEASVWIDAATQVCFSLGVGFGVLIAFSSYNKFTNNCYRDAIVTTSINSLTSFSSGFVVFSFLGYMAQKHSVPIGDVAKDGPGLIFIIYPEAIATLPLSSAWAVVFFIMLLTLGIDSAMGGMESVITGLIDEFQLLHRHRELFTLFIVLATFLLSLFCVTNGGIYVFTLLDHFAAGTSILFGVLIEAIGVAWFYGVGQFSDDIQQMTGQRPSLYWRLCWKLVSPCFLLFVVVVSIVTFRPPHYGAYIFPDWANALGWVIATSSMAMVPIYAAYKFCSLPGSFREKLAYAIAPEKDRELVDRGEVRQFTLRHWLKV
Sequence of norepinephrine transporter (P23975 whole entry): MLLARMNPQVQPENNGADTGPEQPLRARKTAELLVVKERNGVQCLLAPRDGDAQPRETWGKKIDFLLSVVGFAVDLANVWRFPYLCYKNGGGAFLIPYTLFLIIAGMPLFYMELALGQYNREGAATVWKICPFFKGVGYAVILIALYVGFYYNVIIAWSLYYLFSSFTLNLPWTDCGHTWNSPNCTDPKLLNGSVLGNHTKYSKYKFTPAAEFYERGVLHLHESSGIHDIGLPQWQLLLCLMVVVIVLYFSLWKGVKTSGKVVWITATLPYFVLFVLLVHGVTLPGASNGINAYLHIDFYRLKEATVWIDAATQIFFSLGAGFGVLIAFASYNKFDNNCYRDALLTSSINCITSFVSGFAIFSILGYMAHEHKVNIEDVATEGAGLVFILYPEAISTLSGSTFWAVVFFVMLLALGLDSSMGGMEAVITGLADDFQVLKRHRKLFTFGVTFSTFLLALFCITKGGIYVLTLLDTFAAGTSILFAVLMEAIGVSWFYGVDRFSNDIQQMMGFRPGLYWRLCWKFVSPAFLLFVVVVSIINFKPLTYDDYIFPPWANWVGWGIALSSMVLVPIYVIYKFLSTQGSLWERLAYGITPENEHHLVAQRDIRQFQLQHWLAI

As for `CC(CN1CCCC(COc2ccc(C(F)(F)F)cc2)C1)C(O)c1ccc(Cl)cc1` (centres unmarked) [compound 218, 1-(4-Chloro-phenyl)-2-methyl-3-[3-(4-trifluoromethyl-phenoxymethyl)-piperidin-1-yl]-propan-1-ol], the results for the IC50 (at dopamine transporter (setting [2]); at serotonin transporter (setting [3]); in test [1] (setting [4])) were less than 10 nM, less than 1000 nM and more than 1000 nM, respectively.
For the compound `CN(C[C@@H]1CCCN(CC2(c3ccc(Cl)cc3)CCC2)C1)c1ccccc1` [compound 35, {1-[1-(4-Chloro-phenyl)-cyclobutylmethyl]-piperidin-3-R-ylmethyl}-methyl-phenyl-amine], the IC50 (on dopamine transporter; on serotonin transporter (setting [3]); in test [1] (setting [5])) was more than 1000 nM each time.
For `OC(CN1CCCC(COc2ccc(C(F)(F)F)cc2)C1)c1ccc(Cl)cc1` (centres unmarked) [compound 136, 1-(4-Chloro-phenyl)-2-[3-(4-trifluoromethyl-phenoxymethyl)-piperidin-1-yl]-ethanol], the IC50 at dopamine transporter (setting [2]) is less than 1000 nM; at serotonin transporter (setting [3]), less than 100 nM; in test [1] (setting [4]), less than 1000 nM.
On to `CNC(CN1CCC[C@@H](CCc2ccccc2)C1)c1ccc(Cl)cc1` (stereo partly drawn) [compound 213, [1-(4-Chloro-phenyl)-2-(3(R)-phenethyl-piperidin-1-yl)-ethyl]-methyl-amine], for which the IC50 is less than 1000 nM on dopamine transporter (setting [2]), less than 100 nM on serotonin transporter (setting [3]) and less than 1000 nM in test [1] (setting [4]).
As to `OC(CN1CCCC(CCc2ccc(C(F)(F)F)cc2)C1)C1(c2ccc(Cl)cc2)CCC1` (single isomer, unassigned) [compound 192, 1-[1-(4-Chloro-phenyl)-cyclobutyl]-2-{3-[2-(4-trifluoromethyl-phenyl)-ethyl]-piperidin-1-yl}-ethanol], the figures for the IC50 (at dopamine transporter (setting [2]); at serotonin transporter (setting [3]); in test [1] (setting [4])) were less than 10 nM, less than 1000 nM and less than 1000 nM, respectively.
`CO[C@@H](CN1CCC[C@H](COc2ccc(C(F)(F)F)cc2)C1)C1(c2ccc(Cl)cc2)CCC1` [compound 162]: the figures for the concentration for half-maximal inhibition (IC50) (at dopamine transporter (setting [2]); at serotonin transporter (setting [3]); in test [1] (setting [4])) were less than 100 nM, less than 1000 nM and more than 1000 nM, respectively.
Regarding `OC(CN1CCCC(COc2ccc(OC(F)(F)F)cc2)C1)C1(c2ccc(OC(F)(F)F)cc2)CCC1` (centres unmarked) [compound 212, 2-[3-(4-Trifluoromethoxy-phenoxymethyl)-piperidin-1-yl]-1-[1-(4-trifluoromethoxy-phenyl)-cyclobutyl]-ethanol], the half-maximal inhibitory concentration (IC50) at dopamine transporter (setting [2]) is less than 100 nM; at serotonin transporter (setting [3]) it was less than 1000 nM; in test [1] (setting [4]), less than 1000 nM.
As for `Clc1ccc(C2(CN3CCCC(CCc4ccccc4)C3)CCC2)cc1` (centres unmarked) [compound 147, 1-[1-(4-Chloro-phenyl)-cyclobutylmethyl]-3-phenethyl-piperidine], the IC50 at dopamine transporter (setting [2]) is less than 1000 nM; at serotonin transporter (setting [3]) it was more than 1000 nM; in test [1] (setting [4]) it was less than 100 nM.
The corresponding values for `CC(O)(CN1CCCC(COc2ccccc2)C1)c1ccc(Cl)cc1` (centres unmarked) [compound 79, 2-(4-Chloro-phenyl)-1-(3-phenoxymethyl-piperidin-1-yl)-propan-2-ol] are less than 1000 nM, less than 100 nM and less than 1000 nM.
As for `OC(CN1CCCC(COc2ccc(C(F)(F)F)cc2)C1)C1(c2ccccc2OC(F)(F)F)CCC1` (single isomer, unassigned) [compound 228, 1-[1-(2-Trifluoromethoxy-phenyl)-cyclobutyl]-2-[3-(4-trifluoromethyl-phenoxymethyl)-piperidin-1-yl]-ethanol], the IC50 (at dopamine transporter (setting [2]); at serotonin transporter (setting [3]); in test [1] (setting [5])) was more than 1000 nM throughout.
As for `COc1ccc(OCC2CCCN(CC3(c4ccccc4)CCC3)C2)cc1` (centres unmarked) [compound 55, 3-(4-Methoxy-phenoxymethyl)-1-(1-phenyl-cyclobutylmethyl)piperidine], the concentration for half-maximal inhibition (IC50) at dopamine transporter (setting [2]) was less than 1000 nM; at serotonin transporter (setting [3]), more than 1000 nM; in test [1] (setting [4]) it was more than 1000 nM.
Regarding `O=C(CN1CCC[C@@H](CCc2ccccc2)C1)c1ccc(Cl)cc1` [compound 145, (R)-1-(4-Chloro-phenyl)-2-(3-phenethyl-piperidin-1-yl)-ethanone], the IC50 (at dopamine transporter (setting [2]); on serotonin transporter (setting [6]); in test [1] (setting [4])) was less than 1000 nM each time.
With `CC(O)(CN1CCC[C@@H](CCc2ccccc2)C1)c1ccc(Cl)cc1` (stereo partly drawn) [compound 197, 2-(4-Chloro-phenyl)-1-(3 (R)-phenethyl-piperidin-1-yl)-propan-2-ol], the IC50 on dopamine transporter (setting [2]) was less than 1000 nM; at serotonin transporter (setting [3]) it was less than 10 nM; in test [1] (setting [4]), less than 1000 nM.
For `O=C(CN1CCCC(COc2ccccc2)C1)C1(c2ccc(Cl)cc2)CCC1` (centres unmarked) [compound 20, 1-[1-(4-Chlorophenyl)cyclobutyl]-2-(3-phenoxymethylpiperidin-1-yl)ethanone], the half-maximal inhibitory concentration (IC50) (on dopamine transporter (setting [2]); at serotonin transporter (setting [3]); in test [1] (setting [4])) was less than 1000 nM throughout.
With `FC(F)(F)c1ccc(OCC2CCCN(CC3(c4ccc(Cl)cc4)CCOCC3)C2)cc1` (centres unmarked) [compound 159, 1-[4-(4-Chloro-phenyl)-tetrahydro-piran-4-ylmethyl]-3-(4-trifluoromethyl-phenoxymethyl)piperidine], the 50% inhibitory concentration (IC50) on dopamine transporter (setting [2]) is less than 100 nM; on serotonin transporter (setting [3]), less than 1000 nM; in test [1] (setting [4]), less than 1000 nM.
As for `OC(CN1CCCC(COc2ccc(C(F)(F)F)cc2)C1)C1(c2ccc(Cl)cc2)CCC1` (centres unmarked) [compound 24, 1-[1-(4-Chlorophenyl)cyclobutyl]-2-[3-(4-trifluoromethylphenoxymethyl)piperidin-1-yl]ethanol], the figures for the half-maximal inhibitory concentration (IC50) (at dopamine transporter (setting [2]); at serotonin transporter (setting [3]); in test [1] (setting [4])) were less than 10 nM, less than 1000 nM and less than 10 nM, respectively.
For `CC(C)(CN1CCCC(COc2ccc(C(F)(F)F)cc2)C1)c1ccc(Cl)cc1` (centres unmarked) [compound 42, 1-[2-(chloro-phenyl)-2-methyl-propyl]-3-(4-trifluoromethyl-phenoxymethyl)-piperidine], the half-maximal inhibitory concentration (IC50) was less than 100 nM at dopamine transporter (setting [7]), more than 1000 nM on serotonin transporter (setting [3]) and less than 1000 nM in test [1] (setting [5]).
As to `FC(F)(F)c1ccc(CCC2CCCN(CC3(c4ccc(Cl)cc4)CCC3)C2)cc1` (centres unmarked) [compound 95, 1-[1-(4-Chloro-phenyl)-cyclobutylmethyl]-3-[2-(4-trifluoromethyl-phenyl)-ethyl]-piperidine], the IC50 was less than 1000 nM at dopamine transporter (setting [2]), less than 1000 nM on serotonin transporter (setting [3]) and more than 1000 nM in test [1] (setting [5]).
As for `FC(F)(F)c1ccc(OC2CCCN(CC3(c4ccc(Cl)cc4)CCC3)C2)cc1` (centres unmarked) [compound 158], the IC50 at dopamine transporter (setting [2]) was less than 1000 nM; at serotonin transporter (setting [3]) it was more than 1000 nM; in test [1] (setting [4]), more than 1000 nM.
Regarding `FC(F)(F)c1ccc(OCC2CCCN(CCc3ccc(-c4ccccc4)cc3)C2)cc1` (centres unmarked) [compound 181, 1-(2-Biphenyl-4-yl-ethyl)-3-(4-trifluoromethyl-phenoxymethyl)-piperidine], the IC50 at dopamine transporter (setting [2]) was more than 1000 nM; at serotonin transporter (setting [6]), less than 100 nM; in test [1] (setting [4]) it was less than 1000 nM.
With `OC(CN1CCCC(CCc2ccc(C(F)(F)F)cc2)C1)c1ccc(Cl)cc1` (single isomer, unassigned) [compound 152, 1-(4-Chloro-phenyl)-2-{3-[2-(4-trifluoromethyl-phenyl)-ethyl]-piperidin-1-yl}-ethanol], the half-maximal inhibitory concentration (IC50) is less than 1000 nM on dopamine transporter (setting [2]), less than 100 nM on serotonin transporter (setting [3]) and less than 1000 nM in test [1] (setting [4]).
In the case of `FC(F)(F)c1ccc(CCC2CCCN(CC3(c4ccccc4)CCC3)C2)cc1` (centres unmarked) [compound 93, 1-(1-phenyl-cyclobutylmethyl]-3-[2-(4-trifluoromethyl-phenyl)-ethyl]-piperidine], the IC50 was more than 1000 nM on dopamine transporter, less than 1000 nM on serotonin transporter (setting [3]) and more than 1000 nM in test [1] (setting [5]).
Regarding `CC(C)(CN1CCC[C@@H](COc2ccc(C(F)(F)F)cc2)C1)c1ccc(Cl)cc1` [compound 122], the IC50 on dopamine transporter (setting [7]) was less than 1000 nM; on serotonin transporter (setting [3]), more than 1000 nM; in test [1] (setting [5]), more than 1000 nM.
For `Clc1ccc(C2(CN3CCCC(COc4ccccc4)C3)CCC2)cc1` (single isomer, unassigned) [compound 5], the IC50 on dopamine transporter (setting [2]) is less than 1000 nM.
Turning to `CO[C@H](CN1CCC[C@H](COc2ccc(C(F)(F)F)cc2)C1)C1(c2ccc(Cl)cc2)CCC1` [compound 163], the values for the IC50 (at dopamine transporter (setting [2]); at serotonin transporter (setting [3]); in test [1] (setting [4])) were less than 10 nM, less than 1000 nM and more than 1000 nM, respectively.
Take `c1ccc(OCC2CCCN(CC3(c4ccccc4)CCC3)C2)cc1` (centres unmarked) [compound 34, 3-Phenoxymethyl-1-(1-phenyl-cyclobutylmethyl)-piperidine]: the IC50 (at dopamine transporter (setting [2]); at serotonin transporter (setting [3]); in test [1] (setting [4])) was less than 1000 nM each time.
For the compound `OC(CN1CCCC(COc2ccc(C(F)(F)F)cc2)C1)(c1ccccc1)C1CCCCC1` (centres unmarked) [compound 191, 1-Cyclohexyl-1-phenyl-2-[3-(4-trifluoromethyl-phenoxymethyl)-piperidin-1-yl]-ethanol], the IC50 (on dopamine transporter (setting [2]); at serotonin transporter (setting [3]); in test [1] (setting [5])) was more than 1000 nM each time.
As for `FC(F)(F)c1ccc(OCC2CCCN(CCc3ccc(Cl)cc3)C2)cc1` (centres unmarked) [compound 8, 1-[2-(4-Chloro-phenyl)-ethyl]-3-(4-trifluoromethyl-phenoxymethyl)-piperidine], the IC50 (on dopamine transporter (setting [2]); in test [1] (setting [5])) was more than 1000 nM throughout.
Take `CN(C)CC(Oc1ccc(C(F)(F)F)cc1)C1CCCN(CC2(c3ccc(Cl)cc3)CCC2)C1` (racemic) [compound 175]: the IC50 is less than 1000 nM on dopamine transporter (setting [2]), less than 1000 nM at serotonin transporter (setting [3]) and more than 1000 nM in test [1] (setting [4]).
Regarding `OC(CN1CCCC(COc2ccccc2)C1)c1ccc(Cl)cc1` (centres unmarked) [compound 33, 1-(4-Chloro-phenyl)-2-(3-phenoxymethyl-piperidin-1-yl)-ethanol], the figures for the concentration for half-maximal inhibition (IC50) (at dopamine transporter (setting [2]); on serotonin transporter (setting [3]); in test [1] (setting [4])) were less than 100 nM, less than 1000 nM and less than 1000 nM, respectively.
On dopamine transporter (setting [2]), `Clc1ccc(C2(CN3CCC[C@@H](COc4ccccc4)C3)CCC2)cc1` [compound 72] yielded an IC50 of less than 1000 nM.
For the compound `Clc1ccc(C2(CN3CCCC(COc4ccccc4)C3)CCC2)cc1` (single isomer, unassigned) [compound 6], the half-maximal inhibitory concentration (IC50) on dopamine transporter (setting [7]) is less than 1000 nM.
